Assay [1] concerns the target AII receptor. Briefly: Ligand-receptor binding assay, displacement of [125I]AII from rat adrenal cortex particulate fraction. As to conditions: 0.05 nM [125I]AII, 1 h incubation, read-out: Angiotensin II Receptor Binding IC50. Here is the method: Angiotensin-II (AII) produces numerous biological responses (e.g. vasoconstriction) through stimulation of its receptors on cell membranes. […] After a 1 h incubation the reaction was terminated by addition of cold assay buffer. The bound and free radioactivity were rapidly separated through glass-fiber filters, and the trapped radioactivity was quantitated by scintillation counting.

In assay [2] the test system is Renal Hypertensive Rats. Briefly: Antihypertensive effect in awake renal hypertensive rats (ligation of left renal artery). The class given is in vivo, rat. As to conditions: for ED30: Rattus norvegicus, oral, read-out: Oral Antihypertensive Effects in Renal Hypertensive Rats ED30. From the text: This procedure increases blood pressure by increasing renin production with consequent elevation of AII levels. […] Arterial blood pressure is continuously measured directly through a carotid artery cannula and recorded using a pressure transducer and a polygraph. Blood pressure levels after treatment are compared to pretreatment levels to determine the antihypertensive effects of the compounds.

Results on 11 compounds are retold here after US5310929A, “Prodrugs of imidazole carboxylic acids as angiotensin II receptor antagonists” (E. I. Du Pont de Nemours and Company, priority 1992, dated 1994).

In general, IC50 refers to the concentration at which inhibition is half-maximal.

Consider `CCCc1nc(CC)c(C(=O)OCN(C)C)n1Cc1ccc(-c2ccccc2-c2nnn[nH]2)cc1` [Example 2, (N,N-Dimethylamino)methyl 4-ethyl-2-propyl-1-[[2'-(tetrazol-5-yl)biphenyl-4-yl]methyl]imidazole-5-carboxylate], for which the IC50 in assay [1] amounted to 100 nM.
As for `CCCc1nc(CC)c(C(=O)OCOC(=O)C(C)(C)C)n1Cc1ccc(-c2ccccc2-c2nnn[nH]2)cc1` [Example 5, Trimethylacetoxymethyl 4-ethyl-2-propyl-1-[[2'-(tetrazol-5-yl)biphenyl-4-yl]methyl]imidazole-5-carboxylate], in assay [1], the concentration for half-maximal inhibition (IC50) is 2 nM. The ED30 in assay [2] was determined as 0.03 mg/kg.
`CCCc1nc(CC)c(C(=O)OCOC(=O)OC)n1Cc1ccc(-c2ccccc2-c2nn[nH]n2)cc1` [Example 7]: in assay [1], the IC50 was 3 nM.
`CCCc1nc(CC)c(C(=O)OCOC(=O)OC(C)(C)C)n1Cc1ccc(-c2ccccc2-c2nnn[nH]2)cc1` [Example 9, t-Butoxycarbonyloxymethyl 4-ethyl-2-propyl-1-[[2'-(tetrazol-5-yl)biphenyl-4-yl]methyl]imidazole-5-carboxylate]: the concentration for half-maximal inhibition (IC50) in assay [1] was found to be 6 nM. For the same compound, the ED30 in assay [2] came out at 0.02 mg/kg.
Take `CCCc1nc(CC)c(C(=O)OC(C)OC(=O)OC)n1Cc1ccc(-c2ccccc2-c2nn[nH]n2)cc1` (stereo not drawn) [Example 11]: the concentration for half-maximal inhibition (IC50) in assay [1] was found to be 4 nM. The ED30 in assay [2] was 0.02 mg/kg.
Regarding `CCCc1nc(CC)c(C(=O)OC(C)OC(=O)OC(C)(C)C)n1Cc1ccc(-c2ccccc2-c2nn[nH]n2)cc1` (stereo not drawn) [Example 12], in assay [1], the IC50 was found to be 5 nM. Also, in assay [2], the ED30 came out at 0.3 mg/kg.
In the case of `CCCc1nc(CC)c(C(=O)OCc2oc(=O)oc2C)n1Cc1ccc(-c2ccccc2-c2nn[nH]n2)cc1` [Example 13, 1,3-Dioxa-5-methyl-cyclopenten-2-one-4-ylmethyl 4-ethyl-2-propyl-1-[[2'-(tetrazol-5-yl)biphenyl-4-yl]methyl]imidazole-5-carboxylate], in assay [1], the concentration for half-maximal inhibition (IC50) was found to be 3 nM. Besides, the ED30 in assay [2] worked out at 0.1 mg/kg.
Take `CCCc1nc(CC)c(C(=O)OCc2oc(=O)oc2C(C)(C)C)n1Cc1ccc(-c2ccccc2-c2nn[nH]n2)cc1` [Example 14, (5-(1.1-Dimethylethyl)-1.3-dioxa-cyclopenten-2-one-4-yl)methyl 4-ethyl-2-propyl-1-[[2'-(tetrazol-5-yl)biphenyl-4-yl)methyl]imidazole-5-carboxylate]: the 50% inhibitory concentration (IC50) in assay [1] stood at 3 nM. In addition, the ED30 in assay [2] worked out at 0.3 mg/kg.
For `CCCc1nc(CC)c(C(=O)OCc2oc(=O)oc2-c2ccccc2)n1Cc1ccc(-c2ccccc2-c2nn[nH]n2)cc1` [Example 15], the half-inhibitory concentration (IC50) in assay [1] turned out to be 6 nM. Also, the ED30 in assay [2] was 0.3 mg/kg.
On to “Methoxydimethylacetoxymethyl 4-ethyl-2-propyl-1-[[2'-(tetrazol-5-yl)biphenyl-4-yl]methyl]imidazole-5-carboxylate [Example 8]”, for which the “Oral Antihypertensive Effects in Renal Hypertensive Rats ED30” value in assay [2] was 0.03 mg/kg.
For the compound “Trimethylacetoxymethyl 4-ethyl-2-propyl-1-[[2'-(N-trimethylacetoxymethyl(tetrazol-5-yl))biphenyl- 4-yl]methyl]imidazole-5-carboxylate [Example 6]”, the IC50 in assay [1] worked out at 20 nM.
